We go through 26 compounds from PMC5404560, “Towards Selective Mycobacterial ClpP1P2 Inhibitors with Reduced Activity against the Human Proteasome” (Antimicrobial Agents and Chemotherapy, 2017).

Where “and” joins values, the source holds several entries; their conditions need not be identical. Equal entries are not always repeated. Where two headings read alike, the source gives them in different places.

One experiment relates to M. smegmatis ΔprcAB. The experiment is classed as cell-based. The settings on record: for M. smegmatis ΔprcAB MIC50: 24 h exposure, OD600, concentration inhibiting 50% of growth; for improvement of bacterial-growth inhibition compared to compound 1: M. smegmatis ΔprcAB.
Another experiment has as its target ClpP1P2 (Mycolicibacterium smegmatis, UniProt A0R197+A0R198). Description: ClpP1P2 inhibition whole-cell RFP-SsrA reporter assay. The settings on record: 3 h incubation.
For a further experiment, the target named is HepG2 proteasome (Homo sapiens, UniProt P20618+P28074). Description: Cell-based proteasome CT-like peptidase inhibition assay (Proteasome-Glo).
Where [1] appears, read: M. smegmatis ΔprcAB IC50 (μM) for ClpP1P2, whole-cell RFP-SsrA reporter.

ClpP1P2, sequence (A0R198 4-203): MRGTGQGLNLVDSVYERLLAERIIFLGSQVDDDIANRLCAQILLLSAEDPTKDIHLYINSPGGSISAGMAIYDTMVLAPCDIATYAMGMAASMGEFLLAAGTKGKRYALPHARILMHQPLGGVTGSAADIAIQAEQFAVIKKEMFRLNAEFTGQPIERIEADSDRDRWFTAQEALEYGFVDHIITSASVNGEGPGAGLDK
ClpP1P2, sequence (A0R197 17-218): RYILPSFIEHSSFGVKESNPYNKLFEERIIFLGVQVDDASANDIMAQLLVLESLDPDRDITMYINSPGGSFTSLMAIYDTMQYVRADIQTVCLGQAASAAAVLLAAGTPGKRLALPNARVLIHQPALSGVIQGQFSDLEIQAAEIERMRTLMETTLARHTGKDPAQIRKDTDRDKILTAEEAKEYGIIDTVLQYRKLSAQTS
Experimental for HepG2 proteasome: A cell-based CT-like peptidase assay was performed using the Proteasome-Glo cell-based assay reagent (Promega) according to the manufacturer's guidelines. Briefly, HepG2 cells (10^4 cells/well) were treated with the compounds indicated in the figures for 2 h, followed by incubation with the luminescent substrate for 10 min. Luminescence was detected with a Tecan M200 Pro plate reader.

What is called IC50 is the concentration needed to halve the response being measured. Take `O=C(N[C@@H](Cc1ccccc1)C(=O)N[C@@H](CCc1ccccc1)B(O)O)c1cnc(-c2ccccc2)nc1` [Compound 55, ((R)-3-phenyl-1-((S)-3-phenyl-2-(2-phenylpyrimidine-5-carboxamido)propanamido)propyl)boronic acid]: the “M. smegmatis ΔprcAB MIC50” value in the experiment on M. smegmatis ΔprcAB is 5.5 ± 0.5 µM. For the same compound, the IC50 was 6 µM against ClpP1P2 (setting [1]) and 0.06 µM on HepG2 proteasome.

`CC(C)(C(=O)N[C@@H](Cc1ccccc1)C(=O)N[C@@H](CCc1ccccc1)B(O)O)n1cccc1` [Compound 54, ((R)-1-((S)-2-(2-methyl-2-(1H-pyrrol-1-yl)propanamido)-3-phenylpropanamido)-3-phenylpropyl)boronic acid]: the “M. smegmatis ΔprcAB MIC50” value with M. smegmatis ΔprcAB came out at 30 ± 0 µM. In addition, the results for the IC50 against ClpP1P2 (setting [1]) and at HepG2 proteasome were 25 µM and 0.5 µM, respectively.

Take `O=C(N[C@@H](Cc1ccccc1)C(=O)N[C@@H](CCc1ccccc1)B(O)O)c1ccc(C(F)(F)F)cc1` [Compound 52, ((R)-3-phenyl-1-((S)-3-phenyl-2-(4-(trifluoromethyl)benzamido)propanamido)propyl)boronic acid]: the “M. smegmatis ΔprcAB MIC50” value in the experiment on M. smegmatis ΔprcAB turned out to be 11 ± 1 µM. Further, the IC50 against ClpP1P2 (setting [1]) came to 12 µM; against HepG2 proteasome, 0.1 µM.

For the compound `CC(C)C[C@H](NC(=O)[C@H](Cc1ccccc1)NC(=O)c1ccccc1)B(O)O` [Compound 35, ((R)-1-((S)-2-benzamido-3-phenylpropanamido)-3-methylbutyl)boronic acid], the “M. smegmatis ΔprcAB MIC50” value with M. smegmatis ΔprcAB turned out to be 3.5 ± 0.5 µM. Also, the IC50 is 3.3 ± 0.5 µM on ClpP1P2 (setting [1]) and 0.006 ± 0.001 µM on HepG2 proteasome.

In the case of `CC(C)(C(=O)N[C@@H](Cc1ccccc1)C(=O)N[C@@H](CCC1CCCCC1)B(O)O)n1cccc1` [Compound 50, ((R)-3-cyclohexyl-1-((S)-2-(2-methyl-2-(1H-pyrrol-1-yl)propanamido)-3-phenylpropanamido)propyl)boronic acid], the “M. smegmatis ΔprcAB MIC50” value with M. smegmatis ΔprcAB came to 150 ± 0 µM. Moreover, the IC50 at ClpP1P2 (setting [1]) was 200 µM; on HepG2 proteasome, above 0.5 µM.

In the case of `O=C(N[C@@H](Cc1ccccc1)C(=O)N[C@@H](CCC1CCCCC1)B(O)O)c1cccc2ncsc12` [Compound 47, ((R)-1-((S)-2-(benzo[d]thiazole-7-carboxamido)-3-phenylpropanamido)-3-cyclohexylpropyl)boronic acid], the “M. smegmatis ΔprcAB MIC50” value in the experiment with M. smegmatis ΔprcAB was above 200 µM. The IC50 at ClpP1P2 (setting [1]) is above 200 µM; against HepG2 proteasome it was 0.288 ± 0.088 µM.

For the compound `CC(C)C[C@H](NC(=O)[C@H](Cc1ccccc1)NC(=O)c1cccnc1)B(O)O` [Compound 36, ((R)-3-methyl-1-((S)-2-(nicotinamido)-3-phenylpropanamido)butyl)boronic acid], the “M. smegmatis ΔprcAB MIC50” value in the experiment on M. smegmatis ΔprcAB turned out to be 6 ± 0 µM. In addition, the IC50 came out at 4 ± 1.4 µM against ClpP1P2 (setting [1]) and 0.03 µM against HepG2 proteasome.

On to `CC(C)C[C@H](NC(=O)[C@H](Cc1ccccc1)NC(=O)c1ccccn1)B(O)O` [Compound 37, ((R)-3-methyl-1-((S)-3-phenyl-2-(picolinamido)propanamido)butyl)boronic acid], for which, in the experiment on M. smegmatis ΔprcAB, the “M. smegmatis ΔprcAB MIC50” value was found to be 15 ± 0 µM. The values for the IC50 against ClpP1P2 (setting [1]) and against HepG2 proteasome were 17 ± 5.7 µM and 0.006 ± 0.001 µM, respectively.

As to `O=C(N[C@@H](Cc1ccccc1)C(=O)N[C@H](B(O)O)C1CCCCC1)c1cnccn1` [Compound 28, ((R)-cyclohexyl((S)-3-phenyl-2-(pyrazine-2-carboxamido)propanamido)methyl)boronic acid], the “M. smegmatis ΔprcAB MIC50” value with M. smegmatis ΔprcAB is 16 ± 4 µM. In addition, the results for the IC50 against ClpP1P2 (setting [1]) and against HepG2 proteasome were 33 ± 12 µM and 0.155 ± 0.025 µM, respectively.

`CC(C)C[C@H](NC(=O)[C@H](Cc1ccccc1)NC(=O)c1ncc(-c2ccccc2)o1)B(O)O` (mixture of isomers) [Compound 42, ((R)-3-methyl-1-((S)-3-phenyl-2-(5-phenyloxazole-2-carboxamido)propanamido)butyl)boronic acid]: in the experiment on M. smegmatis ΔprcAB, the “M. smegmatis ΔprcAB MIC50” value was 8 ± 0 µM. Further, the IC50 at ClpP1P2 (setting [1]) is 6.7 ± 4.1 µM; against HepG2 proteasome, 0.006 ± 0.001 µM.

Take `CC(C)C[C@H](NC(=O)[C@H](Cc1ccccc1)NC(=O)c1cc(-c2ccccc2)ncn1)B(O)O` [Compound 39, ((R)-3-methyl-1-((S)-3-phenyl-2-(6-phenylpyrimidine-4-carboxamido)propanamido)butyl) boronic acid]: the “M. smegmatis ΔprcAB MIC50” value in the experiment with M. smegmatis ΔprcAB was above 200 µM. The IC50 was above 200 µM at ClpP1P2 (setting [1]) and 0.006 ± 0.001 µM at HepG2 proteasome.

`CC(C)C[C@H](NC(=O)[C@H](Cc1ccccc1)NC(=O)c1cccc2ncsc12)B(O)O` [Compound 43]: in the experiment with M. smegmatis ΔprcAB, the “M. smegmatis ΔprcAB MIC50” value amounted to 3 ± 0 µM and the “improvement of bacterial-growth inhibition compared to compound 1” value worked out at 2 fold. Besides, half-maximal inhibition against ClpP1P2 (setting [1]) (IC50) required 2.75 ± 1.25 µM. Further, on HepG2 proteasome, half-maximal inhibition (IC50) was put at 0.006 ± 0.001 µM.

In the case of “((R)-1-((S)-2-(indolizine-2-carboxamido)-3-phenylpropanamido)-3-methylbutyl)boronic acid [Compound 40]”, the “M. smegmatis ΔprcAB MIC50” value in the experiment on M. smegmatis ΔprcAB is 8.3 ± 4.5 µM. Besides, the IC50 at ClpP1P2 (read-out: M. smegmatis ΔprcAB IC50 (μM) for ClpP1P2, whole-cell RFP-SsrA reporter) was 9 ± 3 µM; at HepG2 proteasome (read-out: IC50 (μM) for HepG2 proteasome, HepG2 cells, 2 h treatment, chymotrypsin-like site) it was 0.023 ± 0.008 µM.

On to `CC(=O)N[C@@H](Cc1ccccc1)C(=O)N[C@@H](Cc1ccccc1)B(O)O` [Compound 46, ((R)-1-((S)-2-acetamido-3-phenylpropanamido)-2-phenylethyl)boronic acid], for which the “M. smegmatis ΔprcAB MIC50” value with M. smegmatis ΔprcAB came to 50 ± 0 µM. In addition, the IC50 on ClpP1P2 (setting [1]) is 50 µM; on HepG2 proteasome, 0.218 ± 0.158 µM.

On to `CC(C)C[C@H](NC(=O)[C@H](Cc1ccccc1)NC(=O)c1cnc(-c2ccccc2)nc1)B(O)O` (mixture of isomers) [Compound 38, ((R)-3-methyl-1-((S)-3-phenyl-2-(2-phenylpyrimidine-5-carboxamido)propanamido)butyl)boronic acid], for which the “M. smegmatis ΔprcAB MIC50” value in the experiment with M. smegmatis ΔprcAB came out at 2 ± 0 µM. Also, the figures for the IC50 against ClpP1P2 (setting [1]) and against HepG2 proteasome were 1.7 ± 1 µM and 0.006 ± 0.001 µM, respectively.

For the compound `O=C(N[C@@H](Cc1ccccc1)C(=O)N[C@@H](CC1CCCCC1)B(O)O)c1cnccn1` (mixture of isomers) [Compound 29, ((R)-2-cyclohexyl-1-((S)-3-phenyl-2-(pyrazine-2-carboxamido)propanamido)ethyl)boronic acid], in the experiment on M. smegmatis ΔprcAB, the “M. smegmatis ΔprcAB MIC50” value came out at 22.5 ± 2.5 µM. Further, the IC50 on ClpP1P2 (setting [1]) is 27 ± 16 µM; on HepG2 proteasome, 0.127 ± 0.002 µM.

On to `CC(=O)N[C@@H](Cc1ccccc1)C(=O)N[C@@H](CC(C)C)B(O)O` [Compound 33, ((R)-1-((S)-2-acetamido-3-phenylpropanamido)-3-methylbutyl)boronic acid], for which the “M. smegmatis ΔprcAB MIC50” value in the experiment with M. smegmatis ΔprcAB amounted to 50 ± 0 µM. The IC50 was 42 µM and 41.7 µM against ClpP1P2 (setting [1]); 0.01 ± 0.005 µM at HepG2 proteasome.

In the case of `CC(C)C[C@H](NC(=O)[C@H](C)NC(=O)c1cnccn1)B(O)O` [Compound 56, ((R)-3-methyl-1-((S)-2-(pyrazine-2-carboxamido)propanamido)butyl)boronic acid], the “M. smegmatis ΔprcAB MIC50” value in the experiment with M. smegmatis ΔprcAB is 76.7 ± 20.5 µM. Also, the concentration for half-maximal inhibition (IC50) on ClpP1P2 (setting [1]) was 100 µM; at HepG2 proteasome, 0.225 ± 0.025 µM.

In the case of `CC(C)C[C@H](NC(=O)CCc1ccccc1)B(O)O` [Compound 25, (R)-(3-methyl-1-(3-phenylpropanamido)butyl)boronic acid], the “M. smegmatis ΔprcAB MIC50” value with M. smegmatis ΔprcAB was above 200 µM. The concentration for half-maximal inhibition (IC50) against ClpP1P2 (setting [1]) is above 200 µM; against HepG2 proteasome, 0.25 µM.

In the case of `O=C(N[C@@H](Cc1ccccc1)C(=O)N[C@@H](CCC1CCCCC1)B(O)O)c1ccccc1` [Compound 48, ((R)-1-((S)-2-benzamido-3-phenylpropanamido)-3-cyclohexylpropyl)boronic acid], the “M. smegmatis ΔprcAB MIC50” value in the experiment with M. smegmatis ΔprcAB is above 200 µM. The IC50 at ClpP1P2 (setting [1]) was above 200 µM; on HepG2 proteasome it was above 0.5 µM.

As for `CCCCC[C@H](NC(=O)[C@H](Cc1ccccc1)NC(=O)c1cnccn1)B(O)O` [Compound 27, ((R)-1-((S)-3-phenyl-2-(pyrazine-2-carboxamido)propanamido)hexyl)boronic acid], in the experiment on M. smegmatis ΔprcAB, the “M. smegmatis ΔprcAB MIC50” value stood at 3 ± 0 µM and the “improvement of bacterial-growth inhibition compared to compound 1” value was 2 fold. On ClpP1P2 (setting [1]), this compound registered an IC50 of 4 µM. The compound also had an IC50 against HepG2 proteasome of 0.03 µM.

On to `CC(C)C[C@H](NC(=O)[C@H](Cc1ccccc1)NC(=O)N1CCCCC1)B(O)O` [Compound 45, ((R)-3-methyl-1-((S)-3-phenyl-2-(piperidine-1-carboxamido)propanamido)butyl)boronic acid], for which, in the experiment on M. smegmatis ΔprcAB, the “M. smegmatis ΔprcAB MIC50” value came out at 19 ± 5.4 µM. Moreover, the half-inhibitory concentration (IC50) against ClpP1P2 (setting [1]) came to 22.5 ± 2.5 µM; at HepG2 proteasome it was 0.023 ± 0.008 µM.

On to `CC(C)C[C@H](NC(=O)[C@H](Cc1ccccc1)NC(=O)Cc1ccccc1)B(O)O` (mixture of isomers) [Compound 34, ((R)-3-methyl-1-((S)-3-phenyl-2-(2-phenylacetamido)propanamido)butyl)boronic acid], for which the “M. smegmatis ΔprcAB MIC50” value in the experiment on M. smegmatis ΔprcAB is 12 ± 0 µM. Also, the IC50 at ClpP1P2 (setting [1]) was 9 ± 3 µM; against HepG2 proteasome, 0.006 ± 0.001 µM.

With `CC(C)C[C@H](NC(=O)[C@H](Cc1ccccc1)NC(=O)[C@H](Cc1ccccc1)NC(=O)c1cnccn1)B(O)O` [Compound 44], the “M. smegmatis ΔprcAB MIC50” value with M. smegmatis ΔprcAB was 75 ± 0 µM. The IC50 was above 200 µM at ClpP1P2 (setting [1]) and 0.006 ± 0.001 µM at HepG2 proteasome.

As for `O=C(N[C@@H](Cc1ccccc1)C(=O)N[C@@H](CCc1ccccc1)B(O)O)c1ccccc1F` [Compound 53, ((R)-1-((S)-2-(2-fluorobenzamido)-3-phenylpropanamido)-3-phenylpropyl)boronic acid], in the experiment on M. smegmatis ΔprcAB, the “M. smegmatis ΔprcAB MIC50” value was found to be 7 ± 3 µM. In addition, the IC50 against ClpP1P2 (setting [1]) was found to be 4.5 µM; against HepG2 proteasome, 0.2 µM.

In the case of `O=C(N[C@@H](Cc1ccccc1)C(=O)N[C@@H](CCC1CCCCC1)B(O)O)c1cnccn1` [Compound 30, ((R)-3-cyclohexyl-1-((S)-3-phenyl-2-(pyrazine-2-carboxamido)propanamido)propyl)boronic acid], in the experiment with M. smegmatis ΔprcAB, the “M. smegmatis ΔprcAB MIC50” value is 3.5 µM and 3.5 ± 0.5 µM. The IC50 came to 25 µM on ClpP1P2 (setting [1]) and 0.5 ± 0.01 µM against HepG2 proteasome.
